Experimental data reported in US7202068B2, “Enone reductase and methods of making and using thereof” (priority 2002, dated 2007).

These compounds were tested on enone reductase (assay: Effect of metal ions and other compounds on the enzyme activity). Conditions: not given.
Assay type: biochemical, Candida kefyr (Candida macedoniensis) IFO 0960
For `O=S(=O)([O-])[O-].[Zn+2]` [ZnSO4], the “Relative Activity (%)” value was 101%. For `[Cl-].[Cl-].[Mg+2]` [MgCl2], the “Relative Activity (%)” value was 111%. In the case of CoCl2, the “Relative Activity (%)” value is reported as 113%. In the case of `[Cl][Cd][Cl]` [CdCl2], the “Relative Activity (%)” value is reported as 104%. For `[Cl-].[Rb+]` [RbCl], the “Relative Activity (%)” value was 107%. With `[F-].[Na+]` [NaF] the “Relative Activity (%)” value was 101%. For `O=C(O)CI` [Iodoacetate], the “Relative Activity (%)” value was 93.6%. For `[NH4+].[O]=[V](=[O])[O-]` [NH4VO3], the “Relative Activity (%)” value was 9.6% and the “inhibition of the enzyme activity (in words)” value (shortened to “inhibition”) was “inhibited the enzyme activity moderately”. `[Cl-].[K+]` [KCl] was tested, and the “Relative Activity (%)” value was 103%. For `O=[N+]([O-])[O-].[Ag+]` [AgNO3], the “Relative Activity (%)” value was 49.1% and the “inhibition” value was “inhibited the enzyme activity moderately”. With `N#C[S-].[Na+]` [NaSCN] the “Relative Activity (%)” value was 93.6%. With `O=S(=O)([O-])[O-].[Be+2]` [BeSO4] the “Relative Activity (%)” value was 80.9%. For `[Ca+2].[Cl-].[Cl-]` [CaCl2], the “Relative Activity (%)” value was 108%. With `C[n+]1c2cc(N)ccc2cc2ccc(N)cc21.[Cl-]` [Trypaflavine] the “Relative Activity (%)” value was 0% and the “inhibition” value was “inhibited the enzyme activity strongly”. For `[Cl-].[Na+]` [NaCl], the “Relative Activity (%)” value was 108%. For `O=[N+]([O-])[O-].O=[N+]([O-])[O-].[Pb+2]` [Pb(NO3)2], the “Relative Activity (%)” value was 0% and the “inhibition” value was “inhibited the enzyme activity strongly”. `O=C(O)CN(CCN(CC(=O)O)CC(=O)O)CC(=O)O` [EDTA] was tested, and the “Relative Activity (%)” value was 110%. In the case of `[Cl][Ni][Cl]` [NiCl], the “Relative Activity (%)” value is reported as 108%. With `[Cl][Mn][Cl]` [MnCl2] the “Relative Activity (%)” value was 94.6%. `O=S(=O)([O-])[O-].[Cu+2]` [CuSO4] was tested, and the “Relative Activity (%)” value was 55.9% and the “inhibition” value was “inhibited the enzyme activity moderately”.

Same assay, conditions: compound added, final concentration of metal 1 mM, substrate 2-cyclohexen-1-one, None = 100
`[Cl][Hg][Cl]` [HgCl2] was tested, and the “Relative Activity (%)” value was 40.8%. `N=C(N)N` [Guanidine] was tested, and the “Relative Activity (%)” value was 61.1%. In the case of `[Cl-].[Li+]` [LiCl], the “Relative Activity (%)” value is reported as 104%.

Same assay, conditions: final concentration of metal 1 mM, substrate 2-cyclohexen-1-one
In the case of `[Cl][Hg][Cl]` [HgCl2], the “inhibition” value is reported as “inhibited the enzyme activity moderately”. With `N=C(N)N` [Guanidine] the “inhibition” value was “inhibited the enzyme activity moderately”.

The compounds below were run on enone reductase (assay: Cofactor requirement of the enzyme to convert ketoisophorone to levodione). Conditions: not given.
Assay type: biochemical, Candida kefyr (Candida macedoniensis) IFO 0960
Experimental: (§1) The standard enzyme assay was performed as follows: a total volume of 1 ml of the basal reaction mixture (200 μl of 1 M Tris-HCl buffer pH 7.5, 100 μl of 80 mM NADH or NADPH, 100 μl of 0.658 M ketoisophorone, 600 μl H2O) was supplemented by 5 μl of the enzyme solution and incubated at 40° C. One unit of the enzyme activity was defined as the amount of the enzyme, which catalyzes the […] of 1 μmol of ketoisophorone per minute. The reaction mixture was extracted by 1 ml of ethylacetate to recover the levodione into the ethylacetate layer. The extract was analyzed by gas chromatography [column: ULBON HR-20M (Shinwa, Japan) 0.25 mmφ×30 m, column temperature: 160° C. (constant), injector temperature: 250° C., carrier gas: He (ca. 1 ml/min)]. The protein concentration was determined by using a Bio-Rad protein assay kit (Bio-Rad, USA).
The cofactor requirement of the enzyme to convert ketoisophorone to levodione was investigated.
For `NC(=O)C1=CN([C@@H]2O[C@H](COP(=O)(O)OP(=O)(O)OC[C@H]3O[C@@H](n4cnc5c(N)ncnc54)[C@H](O)[C@@H]3O)[C@@H](O)[C@H]2O)C=CC1` [NADH], the “serves as co-factor for the reductive reaction” value was “could serve as a co-factor”. With `NC(=O)C1=CN([C@@H]2O[C@H](COP(=O)(O)OP(=O)(O)OC[C@H]3O[C@@H](n4cnc5c(N)ncnc54)[C@H](OP(=O)(O)O)[C@@H]3O)[C@@H](O)[C@H]2O)C=CC1` [NADPH] the “serves as co-factor for the reductive reaction” value was “could serve as a co-factor”.

Each compound was assayed on enone reductase (assay: Substrate specificity of the enone reductase (standard enzyme assay with various substrates)). Conditions: 0.05% final concentration, 30° C.
Assay type: biochemical, Candida kefyr (Candida macedoniensis) IFO 0960
Experimental: as §1
Substrate specificity of the enzyme was determined by using the same enzyme assay method as described above under (1), except that various substrate solutions (0.05% final concentration in the reaction mixture) were used instead of ketoisophorone, and the reaction was done at 30° C. The relative activity (%) of different substrates is compared in Table 1, showing the best result with 3-butene-2-one.
`C=CC(C)=O` [3-Butene-2-one] was tested, and the “relative activity of different substrates (in words)” value was “best result”.

Same assay, conditions: as substrate, 0.05% final concentration, 30° C., ketoisophorone = 100
`C=CC(C)=O` [3-Butene-2-one] was tested, and the “Relative Activity (%)” value was 403.3%. With `CC1=CC(=O)CC(C)(C)C1=O` [Ketoisophorone, 2,6,6-trimethyl-2-cyclohexene-1,4-dione] the “Relative Activity (%)” value was 100%. R-(−)-Carvone was tested, and the “Relative Activity (%)” value was 56.3%. In the case of `O=[N+]([O-])C1=CCCCC1` [1-Nitro-1-cyclohexen], the “Relative Activity (%)” value is reported as 373.8%. In the case of `O=CC=Cc1ccccc1` [Cinnamaldehyde], the “Relative Activity (%)” value is reported as 216.7%. With `O=C1C=CCCC1` [2-Cyclohexen-1-one] the “Relative Activity (%)” value was 252.1%.
